Measurements published in PubChem BioAssay AID1259407 (Chemical Carcinogenesis Research Information System (CCRIS), 2018).
Activity calls are given as the source filed them. The rule behind the calls is not given here.

System: CCRIS mutagenicity, Ames/micronucleus/aberration tests
Experiment: CCRIS mutagenicity studies
[1] = Test System: AMES SALMONELLA TYPHIMURIUM, Strain/Indicator: TA98, Metabolic Activation: NONE, Method: STANDARD PLATE
[2] = Test System: AMES SALMONELLA TYPHIMURIUM, Strain/Indicator: TA98, Metabolic Activation: RAT, LIVER, S-9, AROCLOR 1254, Method: STANDARD PLATE
[3] = Test System: AMES SALMONELLA TYPHIMURIUM, Strain/Indicator: TA100, Metabolic Activation: NONE, Method: STANDARD PLATE
[4] = Test System: AMES SALMONELLA TYPHIMURIUM, Strain/Indicator: TA100, Metabolic Activation: RAT, LIVER, S-9, AROCLOR 1254, Method: STANDARD PLATE
[5] = Test System: AMES SALMONELLA TYPHIMURIUM, Strain/Indicator: TA1535, Metabolic Activation: NONE, Method: STANDARD PLATE
[6] = Test System: AMES SALMONELLA TYPHIMURIUM, Strain/Indicator: TA1535, Metabolic Activation: RAT, LIVER, S-9, AROCLOR 1254, Method: STANDARD PLATE
[7] = Test System: AMES SALMONELLA TYPHIMURIUM, Strain/Indicator: TA1538, Metabolic Activation: NONE, Method: STANDARD PLATE
[8] = Test System: AMES SALMONELLA TYPHIMURIUM, Strain/Indicator: TA1538, Metabolic Activation: RAT, LIVER, S-9, AROCLOR 1254, Method: STANDARD PLATE
[9] = Test System: AMES SALMONELLA TYPHIMURIUM, Strain/Indicator: TA98, Metabolic Activation: NONE, Method: PREINCUBATION
[10] = Test System: AMES SALMONELLA TYPHIMURIUM, Strain/Indicator: TA98, Metabolic Activation: RAT, LIVER, S-9, AROCLOR 1254, Method: PREINCUBATION
[11] = Test System: AMES SALMONELLA TYPHIMURIUM, Strain/Indicator: TA100, Metabolic Activation: NONE, Method: PREINCUBATION
[12] = Test System: AMES SALMONELLA TYPHIMURIUM, Strain/Indicator: TA100, Metabolic Activation: RAT, LIVER, S-9, AROCLOR 1254, Method: PREINCUBATION
[13] = Test System: AMES SALMONELLA TYPHIMURIUM, Strain/Indicator: TA102, Metabolic Activation: NONE, Method: PREINCUBATION

Measured: mutagenic call

O=C1CCC(N2C(=O)c3ccccc3C2=O)C(=O)N1 (stereo unspecified)
inactive: Test System: AMES SALMONELLA TYPHIMURIUM, Strain/Indicator: TA97, Metabolic Activation: NONE, Method: STANDARD PLATE inactive; negative | Test System: AMES SALMONELLA TYPHIMURIUM, Strain/Indicator: TA97, Metabolic Activation: RAT, LIVER, S-9, AROCLOR 1254, Method: STANDARD PLATE inactive; negative | [1] inactive; negative | Test System: AMES SALMONELLA TYPHIMURIUM, Strain/Indicator: TA98, Metabolic Activation: RAT, LIVER, S-9, AROCLOR 1254 (4, 10 OR 30%), Method: PREINCUBATION inactive; negative | [2] inactive; negative | [3] inactive; negative | Test System: AMES SALMONELLA TYPHIMURIUM, Strain/Indicator: TA100, Metabolic Activation: RAT, LIVER, S-9, AROCLOR 1254 (10%), Method: PREINCUBATION inactive; negative | [4] inactive; negative | [5] inactive; negative | [6] inactive; negative | Test System: AMES SALMONELLA TYPHIMURIUM, Strain/Indicator: TA1537, Metabolic Activation: NONE, Method: STANDARD PLATE inactive; negative | Test System: AMES SALMONELLA TYPHIMURIUM, Strain/Indicator: TA1537, Metabolic Activation: RAT, LIVER, S-9, AROCLOR 1254, Method: STANDARD PLATE inactive; negative | [7] inactive; negative | [8] inactive; negative | Test System: MOUSE LYMPHOMA, Strain/Indicator: L5178Y (TK+/TK-), Metabolic Activation: NONE, Method: MICROWELL inactive; negative | Test System: MOUSE LYMPHOMA, Strain/Indicator: L5178Y (TK+/TK-), Metabolic Activation: RAT, LIVER, S-9, PHENOBARBITAL AND BETA-NAPHTHOFLAVONE, Method: MICROWELL inactive; negative

O=[N+]([O-])c1ccc2c3cccc4cccc(c5c([N+](=O)[O-])ccc1c25)c43
active: Test System: AMES SALMONELLA TYPHIMURIUM, Strain/Indicator: TA98(1,8-DNP6), Metabolic Activation: NONE, Method: STANDARD PLATE active; positive | Test System: AMES SALMONELLA TYPHIMURIUM, Strain/Indicator: TA98(NR), Metabolic Activation: NONE, Method: STANDARD PLATE active; positive | [1] active; positive | Test System: AMES SALMONELLA TYPHIMURIUM, Strain/Indicator: TA98, Metabolic Activation: NONE, Method: STANDARD PLATE (ANAEROBIC) active; positive | [2] active; positive | [4] active; positive
inactive: [3] inactive; negative

CCCCCCCCCCCCCC(=O)ON(C(C)=O)c1ccc2c(c1)Cc1ccccc1-2
active: Test System: UDS HUMAN FIBROBLASTS, Strain/Indicator: THY INCORP (NON-S-PHASE), Metabolic Activation: NONE, Method: AUTORADIOGRAPHY active; positive

Cc1cncc(C)n1
active: [1] active; positive
inactive: [9] inactive; negative | [10] inactive; negative | [2] inactive; negative | [11] inactive; negative | [3] inactive; negative | [12] inactive; negative | [4] inactive; negative | [13] inactive; negative | Test System: AMES SALMONELLA TYPHIMURIUM, Strain/Indicator: TA102, Metabolic Activation: RAT, LIVER, S-9, AROCLOR 1254, Method: PREINCUBATION inactive; negative

CCOc1cc(N=Nc2ccccc2)ccc1N=Nc1c(S(=O)(=O)O)cc2ccc(N)cc2c1O
active: [2] active; positive | [4] active; positive | [8] active; positive
inactive: [1] inactive; negative | [3] inactive; negative | [7] inactive; negative

O=c1oc2cccc3ccc4cccc1c4c32
inactive: [9] inactive; negative | [10] inactive; negative | [11] inactive; negative | [12] inactive; negative

COc1ccccc1CC1CO1 (stereo unspecified)
active: [11] active; positive | [3] active; positive | Test System: AMES SALMONELLA TYPHIMURIUM, Strain/Indicator: TA1535, Metabolic Activation: NONE, Method: PREINCUBATION active; positive | [5] active; positive

Cc1c2ccccc2c(C)c2ccccc12
inactive: [3] inactive; negative
active: [1] active; positive | [2] active; positive | [4] active; positive

CC(CO)[N+](=O)[O-] (stereo unspecified)
inactive: [9] inactive; negative | Test System: AMES SALMONELLA TYPHIMURIUM, Strain/Indicator: TA98, Metabolic Activation: RAT, LIVER, S-9, AROCLOR, Method: PREINCUBATION inactive; negative | [11] inactive; negative | Test System: AMES SALMONELLA TYPHIMURIUM, Strain/Indicator: TA100, Metabolic Activation: RAT, LIVER, S-9, AROCLOR, Method: PREINCUBATION inactive; negative | [13] inactive; negative | Test System: AMES SALMONELLA TYPHIMURIUM, Strain/Indicator: TA102, Metabolic Activation: RAT, LIVER, S-9, AROCLOR, Method: PREINCUBATION inactive; negative

CNC(=O)Oc1cc2ccccc2c2ccccc12
inactive: [2] inactive; negative
active: [6] active; positive

O[C@H]1[C@H](O)COC(NCCc2c[nH]c3ccccc23)[C@@H]1O (stereo partly specified)
active: Test System: AMES SALMONELLA TYPHIMURIUM, Strain/Indicator: TA100, Metabolic Activation: NONE, Method: LIQUID INCUBATION active; positive
